This assay deals with T1, CGRP1 receptor (Homo sapiens, UniProt O60894+Q16602).
T1 construct: SK-N-MC cells express CRLR and RAMP1, which form CGRP1 receptor; endogenous in cells; host or cells: SK-N-MC human neuroblastoma cells
Kind of assay: in vitro CGRP1 receptor mediated cAMP assay in SK-N-MC cells. Type of assay: cell-based. How it is done:
The in vitro cAMP assay employed a human neuroblastoma-derived cell line (SK-N-MC). SK-N-MC cells express CRLR and RAMP1, which form CGRP1 receptor. CGRP1 receptor is a G-protein coupled receptor linked to the stimulatory G-protein, Gs. […] Briefly, two days before the assay, the cells were plated in 96-well plates in growth medium. On the day of the assay cells were rinsed with PBS followed by the addition of 60 μl of plasma free medium for 15 minutes at room temperature. […] The medium was then removed and the cells were lysed with 100 μl lysis buffer for 30 minutes at 37° C. for 30 minutes. Using a Tropix ELISA kit (Applied Biosystems, Foster City, Calif.), a cAMP-AP conjugate was diluted (1:100) and added (30 μl) to each well of a 96-well ELISA plate. An aliquot of the lysis buffer from the cell plate was then added to the ELISA plate followed by an aliquot of the cAMP antibody. This mixture was incubated for 1 hour at room temperature with gentle shaking. The ELISA plate was then washed 6× with wash buffer followed by the additions of a substrate enhancer. This mixture was incubated for 30 minutes at room temperature and then read on a MicroBeta Jet or EnVision plate reader. The results were analyzed using Prism (GraphPad).

Where [1] appears, read: Table 2C, unconjugated peptide, read-out: Peptide IC50.

The text below walks through data of US8168592B2 (Amgen Inc., priority 2005, dated 2012).

Where two headings read alike, the source gives them in different places. Square brackets hold non-standard residues; d marks the D form. Peptide text beside a SMILES is read from it. Oic = O=C(O)[C@@H]1C[C@@H]2CCCC[C@@H]2N1; hArg = N=C(N)NCCCC[C@H](N)C(=O)O; Cit = NC(=O)NCCC[C@H](N)C(=O)O

T1 sequence (Q16602 23-461): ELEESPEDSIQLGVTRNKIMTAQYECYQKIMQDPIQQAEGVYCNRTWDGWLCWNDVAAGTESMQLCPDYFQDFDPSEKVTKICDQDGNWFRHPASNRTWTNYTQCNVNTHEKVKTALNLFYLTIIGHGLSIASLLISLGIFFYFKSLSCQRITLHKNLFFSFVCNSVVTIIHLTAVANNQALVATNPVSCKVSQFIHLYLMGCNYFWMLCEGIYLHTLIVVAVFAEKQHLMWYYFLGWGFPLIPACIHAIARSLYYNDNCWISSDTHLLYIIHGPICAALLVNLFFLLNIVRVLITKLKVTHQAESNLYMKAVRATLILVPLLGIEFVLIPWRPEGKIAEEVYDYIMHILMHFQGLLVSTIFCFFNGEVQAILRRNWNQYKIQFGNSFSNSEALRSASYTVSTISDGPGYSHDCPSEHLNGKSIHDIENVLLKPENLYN
T1 sequence (O60894 27-148): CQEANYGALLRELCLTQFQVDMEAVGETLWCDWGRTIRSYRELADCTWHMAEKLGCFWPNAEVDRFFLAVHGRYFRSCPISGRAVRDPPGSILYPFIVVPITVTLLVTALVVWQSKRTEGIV

On to `CC(=O)N[C@@H](Cc1c[nH]c2ccccc12)C(=O)N[C@H](C(=O)N[C@H](C(=O)N[C@@H](Cc1c[nH]cn1)C(=O)N[C@@H](CCCNC(N)=O)C(=O)N[C@@H](CC(C)C)C(=O)N[C@@H](C)C(=O)NCC(=O)N[C@@H](CC(C)C)C(=O)N[C@@H](CC(C)C)C(=O)N[C@@H](CO)C(=O)N[C@@H](CCCNC(N)=O)C(=O)N[C@@H](CO)C(=O)NCC(=O)NCC(=O)N[C@H](C(=O)N[C@H](C(=O)N[C@@H](CCCCNC(=N)N)C(=O)N[C@@H](CCCCN)C(=O)N[C@@H](CC(N)=O)C(=O)N[C@@H](Cc1ccccc1)C(=O)N[C@H](C(=O)N1CCC[C@H]1C(=O)N[C@H](C(=O)N[C@@H](CC(=O)O)C(=O)N[C@H](C(=O)NCC(=O)NC1(C(=O)N[C@@H](Cc2ccccc2)C(=O)N[C@@H](C)C(=O)N[C@@H](Cc2ccccc2)C(N)=O)Cc2ccccc2C1)C(C)C)[C@@H](C)O)C(C)C)C(C)C)C(C)C)[C@@H](C)O)C(C)C` [compound 669], for which the half-inhibitory concentration (IC50) (Table 2A, read-out: IC50) is 33.2 to 262 nM.

As to `CC(=O)N[C@H](C(=O)N[C@H](C(=O)N[C@H](C(=O)N[C@H](C(=O)N[C@@H](Cc1c[nH]cn1)C(=O)N[C@@H](CCCNC(N)=O)C(=O)N[C@@H](CC(C)C)C(=O)N[C@@H](C)C(=O)NCC(=O)N[C@@H](CC(C)C)C(=O)N[C@@H](CC(C)C)C(=O)N[C@@H](CO)C(=O)N[C@@H](CCCNC(N)=O)C(=O)N[C@@H](CO)C(=O)NCC(=O)NCC(=O)N[C@H](C(=O)N[C@H](C(=O)N[C@@H](CCCCNC(=N)N)C(=O)N[C@@H](CCCCN)C(=O)N[C@@H](CC(N)=O)C(=O)N[C@@H](Cc1ccccc1)C(=O)N[C@H](C(=O)N1CCC[C@H]1C(=O)N[C@H](C(=O)N[C@@H](CC(=O)O)C(=O)N[C@H](C(=O)NCC(=O)N1CCC[C@H]1C(=O)N[C@@H](Cc1ccccc1)C(=O)N[C@@H](C)C(N)=O)C(C)C)[C@@H](C)O)C(C)C)C(C)C)C(C)C)[C@@H](C)O)C(C)C)C(C)C)C(C)C` [compound 654] (Ac-VVVTH[Cit]LAGLLS[Cit]SGGVV[hArg]KNFVPTDVGPFA-NH2), the IC50 (Table 2A, read-out: IC50) was more than 1000 nM.

Regarding `CC(=O)N[C@@H](Cc1c[nH]c2ccccc12)C(=O)N[C@H](C(=O)N[C@H](C(=O)N[C@@H](Cc1c[nH]cn1)C(=O)N[C@@H](CCCNC(N)=O)C(=O)N[C@@H](CC(C)C)C(=O)N[C@@H](C)C(=O)NCC(=O)N[C@@H](CC(C)C)C(=O)N[C@@H](CC(C)C)C(=O)N[C@@H](CO)C(=O)N[C@@H](CCCNC(N)=O)C(=O)N[C@@H](CO)C(=O)NCC(=O)NCC(=O)N[C@H](C(=O)N[C@H](C(=O)N[C@@H](Cc1ccc(NC(=N)N)cc1)C(=O)N[C@@H](CCCCN)C(=O)N[C@@H](CC(N)=O)C(=O)N[C@@H](Cc1ccccc1)C(=O)N[C@H](C(=O)N1CCC[C@H]1C(=O)N[C@H](C(=O)N[C@@H](CC(=O)O)C(=O)N[C@H](C(=O)NCC(=O)N1[C@H](C(=O)N[C@@H](Cc2ccccc2)C(=O)N[C@@H](C)C(=O)N[C@@H](Cc2ccccc2)C(N)=O)C[C@@H]2CCCC[C@@H]21)C(C)C)[C@@H](C)O)C(C)C)C(C)C)C(C)C)[C@@H](C)O)C(C)C` [compound 664], the half-maximal inhibitory concentration (IC50) (Table 2A, read-out: IC50) fell in the range of 2.29 to 2.95 nM.

Consider “Ac-WVTHRLAGLLSQSGGVVRCNFVPTDVGPFAF-NH2 [compound 35]”, for which the IC50 (Table 7, R11 and/or R18 stability analogs, with or without 20 kDa PEG, read-out: IC50) was 0.37 nM.

On to `CC(=O)N[C@@H](Cc1c[nH]c2ccccc12)C(=O)N[C@H](C(=O)N[C@H](C(=O)N[C@@H](Cc1c[nH]cn1)C(=O)N[C@@H](CCCNC(N)=O)C(=O)N[C@@H](CC(C)C)C(=O)N[C@@H](C)C(=O)NCC(=O)N[C@@H](CC(C)C)C(=O)N[C@@H](CC(C)C)C(=O)N[C@@H](CO)C(=O)N[C@@H](CCCNC(N)=O)C(=O)N[C@@H](CO)C(=O)NCC(=O)NCC(=O)N[C@H](C(=O)N[C@H](C(=O)N[C@@H](CCCNC(=N)N)C(=O)N[C@@H](CCCCN)C(=O)N[C@@H](CC(N)=O)C(=O)N[C@@H](Cc1ccccc1)C(=O)N[C@H](C(=O)N1CCC[C@H]1C(=O)N[C@H](C(=O)N[C@@H](CC(=O)O)C(=O)N[C@H](C(=O)NCC(=O)N1[C@H](C(=O)N[C@@H](Cc2ccccc2)C(=O)N[C@@H](C)C(=O)N[C@@H](Cc2ccccc2)C(N)=O)C[C@@H]2CCCC[C@@H]21)C(C)C)[C@@H](C)O)C(C)C)C(C)C)C(C)C)[C@@H](C)O)C(C)C` [compound 920] (Ac-WVTH[Cit]LAGLLS[Cit]SGGVVRKNFVPTDVG[Oic]FAF-NH2), for which the IC50 under setting [1] turned out to be 0.85 nM.

As to `CC(=O)N[C@@H](Cc1c[nH]c2ccccc12)C(=O)N[C@H](C(=O)N[C@H](C(=O)N[C@@H](Cc1c[nH]cn1)C(=O)N[C@@H](CCCNC(N)=O)C(=O)N[C@@H](CC(C)C)C(=O)N[C@@H](C)C(=O)NCC(=O)N[C@@H](CC(C)C)C(=O)N[C@@H](CC(C)C)C(=O)N[C@@H](CO)C(=O)N[C@@H](CCCNC(=N)N)C(=O)N1CCC[C@H]1C(=O)NCC(=O)NCC(=O)N[C@H](C(=O)N[C@H](C(=O)N[C@@H](CCCNC(=N)N)C(=O)N[C@@H](CCCCN)C(=O)N[C@@H](CC(N)=O)C(=O)N[C@@H](Cc1ccccc1)C(=O)N[C@H](C(=O)N1CCC[C@H]1C(=O)N[C@H](C(=O)N[C@@H](CC(=O)O)C(=O)N[C@H](C(=O)NCC(=O)N1CCC[C@H]1C(=O)N[C@@H](Cc1ccccc1)C(=O)N[C@@H](C)C(=O)N[C@@H](Cc1ccccc1)C(N)=O)C(C)C)[C@@H](C)O)C(C)C)C(C)C)C(C)C)[C@@H](C)O)C(C)C` [compound 868] (Ac-WVTH[Cit]LAGLLSRPGGVVRKNFVPTDVGPFAF-NH2), the half-maximal inhibitory concentration (IC50) under setting [1] was found to be 3 nM.

As for “Ac-WVTHRLAGLLSRSGGVCRNNFVPTDVGPFAF-NH2 [compound 820]”, under “Table 2D, read-out: IC50”, the concentration for half-maximal inhibition (IC50) was found to be 0.36 nM.

Regarding “SEQ ID NO:41 (Ac-WVTHRLAGLLS[dR]SGGVVRCNFVPTDVGPFAF-NH2; SMILES CC(=O)N[C@@H](Cc1c[nH]c2ccccc12)C(=O)N[C@H](C(=O)N[C@H](C(=O)N[C@@H](Cc1c[nH]cn1)C(=O)N[C@@H](CCCNC(=N)N)C(=O)N[C@@H](CC(C)C)C(=O)N[C@@H](C)C(=O)NCC(=O)N[C@@H](CC(C)C)C(=O)N[C@@H](CC(C)C)C(=O)N[C@@H](CO)C(=O)N[C@H](CCCNC(=N)N)C(=O)N[C@@H](CO)C(=O)NCC(=O)NCC(=O)N[C@H](C(=O)N[C@H](C(=O)N[C@@H](CCCNC(=N)N)C(=O)N[C@@H](CS)C(=O)N[C@@H](CC(N)=O)C(=O)N[C@@H](Cc1ccccc1)C(=O)N[C@H](C(=O)N1CCC[C@H]1C(=O)N[C@H](C(=O)N[C@@H](CC(=O)O)C(=O)N[C@H](C(=O)NCC(=O)N1CCC[C@H]1C(=O)N[C@@H](Cc1ccccc1)C(=O)N[C@@H](C)C(=O)N[C@@H](Cc1ccccc1)C(N)=O)C(C)C)[C@@H](C)O)C(C)C)C(C)C)C(C)C)[C@@H](C)O)C(C)C)”, the “antagonist activity in cAMP assay, in words” value is “well tolerated”.

In the case of “SEQ ID NO:23 (WVTHRLAGLLSXSGGVVRKNFVPTDVGPFAF; CGRP peptide; MOD_RES (1)..(1): …ON; MISC_FEATURE (12)..(12): xaa=homoarginine; MOD_RES (31)..(31): AMIDATION)”, the “antagonist activity in cAMP assay, in words” value is listed as “well tolerated”.

With `CC(=O)N[C@@H](Cc1c[nH]c2ccccc12)C(=O)N[C@H](C(=O)N[C@H](C(=O)N[C@@H](Cc1cnc[nH]1)C(=O)N[C@@H](CCCNC(N)=O)C(=O)N[C@@H](CC(C)C)C(=O)N[C@@H](C)C(=O)NCC(=O)N[C@@H](CC(C)C)C(=O)N[C@@H](CC(C)C)C(=O)N[C@@H](CO)C(=O)N[C@@H](CCCN=C(N)N)C(=O)N[C@@H](CO)C(=O)NCC(=O)NCC(=O)N[C@H](C(=O)N[C@H](C(=O)N[C@@H](CCCN=C(N)N)C(=O)N[C@@H](CCCCN)C(=O)N[C@@H](CC(N)=O)C(=O)N[C@@H](Cc1ccccc1)C(=O)N[C@H](C(=O)N1CCC[C@H]1C(=O)N[C@H](C(=O)N[C@@H](CC(=O)O)C(=O)N[C@H](C(=O)NCC(=O)N1CCC[C@H]1C(=O)N[C@@H](Cc1ccccc1)C(=O)N[C@@H](C)C(=O)N[C@@H](Cc1ccccc1)C(N)=O)C(C)C)[C@@H](C)O)C(C)C)C(C)C)C(C)C)[C@@H](C)O)C(C)C` [compound 861], under setting [1], the IC50 amounted to 0.57 nM.

Take `CC(=O)N[C@@H](Cc1cccc2ccccc12)C(=O)N[C@H](C(=O)N[C@@H](CCC(=O)O)C(=O)N[C@@H](Cc1c[nH]cn1)C(=O)N[C@@H](CCCCNC(=N)N)C(=O)N[C@@H](CC(C)C)C(=O)N[C@@H](CCCCN)C(=O)NCC(=O)N[C@@H](CC(C)C)C(=O)N[C@@H](CC(C)C)C(=O)N[C@@H](CO)C(=O)N[C@@H](CCCNC(N)=O)C(=O)N[C@@H](CO)C(=O)NCC(=O)N1CC[C@H]1C(=O)N[C@H](C(=O)N[C@H](C(=O)N[C@@H](CCCCNC(=N)N)C(=O)N[C@@H](CCCCN)C(=O)N[C@@H](CC(N)=O)C(=O)N[C@@H](Cc1ccccc1)C(=O)N[C@H](C(=O)N1CCC[C@H]1C(=O)N[C@H](C(=O)N[C@@H](CC(=O)O)C(=O)N[C@H](C(=O)NCC(=O)N1CCC[C@H]1C(=O)N[C@@H](Cc1ccccc1)C(=O)N[C@@H](C)C(=O)N[C@@H](Cc1ccccc1)C(N)=O)C(C)C)[C@@H](C)O)C(C)C)C(C)C)C(C)C)C(C)C` [compound 910]: the IC50 under setting [1] came out at 2.31 nM.

By IC50 is commonly meant the point on the concentration scale where inhibition reaches its midpoint.
